{
  "source": "patent US20050014849A1",
  "about": "“Antifungal phenylethylene” (priority 2001, published 2005)",
  "key": {"C. utilis ATCC 9226": {"tested_on": "C. utilis ATCC 9226", "test": "Broth macrodilution MIC/MFC", "type": "cell-based, Candida utilis", "protocol": "(§1) TMPN was screened against yeasts by the broth macrodilution assay according to the NCCLS [7]. Yeasts were suspended and diluted as recommended to yield final inocula ranging from 0.5-2.5×10^3 cfu/ml. Tests were performed in sterile 12 by 75 mm plastic tubes containing two-fold dilutions of TMPN in 0.165 M morpholinepropanesulfonic acid buffered RPMI 1640 medium (pH 7.0). One tube was again left drug free (but contained an equivalent volume of DMSO) for a turbidity control. Tubes were incubated without agitation at the appropriate temperature (see Fungal Strains section above). MICs were determined after 72 h for Cryptococcus and after 48 h for other yeast genera. The MIC was defined as the lowest concentration of TMPN that inhibited all visible growth of the test organism (optically clear).\n(§2) Minimum fungicidal concentrations (MFCs) were determined by subculturing 0.1 ml from each tube with no visible growth in the MIC broth macrodilution series onto the appropriate drug-free plates (see Fungal Strains section above)."}, "C. utilis ATCC 22023": {"tested_on": "C. utilis ATCC 22023", "test": "Broth macrodilution MIC/MFC", "type": "cell-based, Candida utilis", "protocol": "as §1, §2"}, "[1]": {"tested_on": "C. neoformans (ATCC 90112)", "test": "Frequency of occurrence of spontaneous mutants", "type": "cell-based, Cryptococcus neoformans", "conditions": "four times the broth macrodilution MIC", "protocol": "Determination of the frequency of occurrence of spontaneous mutants was performed as previously described. Overnight cultures of C neoformans (ATCC 90112), C. albicans (ATCC 90028) and Trichosporon inkin (ATCC 18020) were diluted to an OD530 nm=0.3. 0.1 ml of each preparation was spread onto SDA plates containing four or eight times the broth macrodilution MIC of TMPN. The starting inoculum for each organism was also diluted and plated onto drug-free SDA plates for determination of cfu/ml. After a 48 h incubation at the appropriate temperature (see Fungal Strains section above), the number of colonies on drug-supplemented SDA was counted. The frequency of occurrence of spontaneous mutants was calculated by dividing the number of colonies on drug-containing plates by the number of colonies in the inoculum. When no colonies were visualized on drug-containing plates, the calculation was (<) 1 colony divided by the number of colonies in the inoculum."}, "T. mucoides ATCC 90046": {"tested_on": "T. mucoides ATCC 90046", "test": "Broth macrodilution MIC/MFC", "type": "cell-based, Trichosporon mucoides", "protocol": "as §1, §2"}, "[2]": {"tested_on": "A. flavus (ASU culture collection)", "test": "Broth macrodilution MIC/MFC, filamentous fungi", "type": "cell-based, Aspergillus flavus", "protocol": "(§3) Susceptibility testing of filamentous fungi was also conducted. Broth macrodilution susceptibility testing of P. lilacinus, Rhizopus spp. and Aspergillus spp. was performed in accordance with a proposed standardized procedure with slight modification. To induce conidium and sporangiospore formation, fungi were grown on PDA slants at 35° C. for 6 days (P. lilacinus, Rhizopus spp., all Aspergillus species except A. nidulans) or 3 days (A. nidulans). Fungal slants were covered with sterile 0.85% NaCl (P. lilacinus, Rhizopus spp., all Aspergillus species except A. nidulans) or 0.05% Tween 80 (A. nidulans), and suspensions were made by gently probing the colonies with the tip of a sterile Pasteur pipette. The resulting mixture of hyphal fragments and conidia or sporangiospores was withdrawn and transferred to a sterile clear microcentrifuge tube, and heavy particles were allowed to settle for 10 min. […] Susceptibility to TMPN was then determined by broth macrodilution as described above for yeast isolates. […]\nas §2"}, "C. albicans (ATCC 90028)": {"tested_on": "C. albicans (ATCC 90028)", "test": "Video-enhanced DIC microscopy of yeast/hyphal morphology", "type": "cell-based, Candida albicans", "excerpt": "The mechanism of action of TMPN was investigated microscopically, Candida albicans (ATCC 90028) cultures were exposed to one quarter or one half times the broth macrodilution MIC of TMPN in DMSO, or an equivalent concentration of DMSO for controls, until late-log phase. Cells were examined using an Axioscope microscope (Carl Zeiss, Thornwood, N.Y.) equipped with standard differential interference contrast (DIC) using a Plan-Neofluar 100×/1.3 (oil immersion) objective. The microscope was coupled to a C24007-07 (imaging tube camera type) video camera, via a 4×extension tube (Carl Zeiss), and an analog control unit (Hammamatsu Photonic Systems Corp., Bridgewater, N.J.). Real-time digital contrast enhancement was done with an Argus 10 Image Processor (Hammamatsu). Single frame images were digitized directly or from videotaped sequences using a Sony UP-5600MD video/digital printer (Sony Electronics, Inc., Montvale, N.J.) and prepared for printing in Photoshop 5.0 (Adobe Systems, Mountain View, Calif.). Final images were printed with a NP-1600M Medical Color Printer (Codonics, Inc., Middleburg Heights, Ohio)."}, "C. glabrata ATCC 90030": {"tested_on": "C. glabrata ATCC 90030", "test": "Broth macrodilution MIC/MFC", "type": "cell-based, Candida glabrata", "protocol": "as §1, §2"}, "C. glabrata ATCC 2001": {"tested_on": "C. glabrata ATCC 2001", "test": "Broth macrodilution MIC/MFC", "type": "cell-based, Candida glabrata", "protocol": "as §1, §2"}, "C. glabrata (8)": {"tested_on": "C. glabrata (8)", "test": "Broth macrodilution MIC/MFC", "type": "cell-based, Candida glabrata", "protocol": "as §1, §2"}, "[3]": {"tested_on": "Amphotericin B-resistant C. lusitaniae ATCC 42720", "test": "Broth macrodilution MIC/MFC", "type": "cell-based, Candida lusitaniae", "protocol": "as §1, §2"}, "[4]": {"tested_on": "A. niger (ASU culture collection)", "test": "Broth macrodilution MIC/MFC, filamentous fungi", "type": "cell-based, Aspergillus niger", "protocol": "as §3, §2"}, "T. ovoides ATCC 90040": {"tested_on": "T. ovoides ATCC 90040", "test": "Broth macrodilution MIC/MFC", "type": "cell-based, Trichosporon ovoides", "protocol": "as §1, §2"}, "C. rugosa (7)": {"tested_on": "C. rugosa (7)", "test": "Broth macrodilution MIC/MFC", "type": "cell-based, Candida rugosa", "protocol": "as §1, §2"}, "[5]": {"tested_on": "Epidermophyton floccosum ATCC 52066", "test": "Broth macrodilution MIC/MFC", "type": "cell-based"}},
  "data": [
    {"compound": "COc1cc(C=C[N+](=O)[O-])cc(OC)c1OC", "note": "[TMPN, 1-(3′,4′,5′-trimethoxyphenyl)-2-nitro-ethylene]", "values": [
      {"measurement": "MFC Range", "setting": "C. utilis ATCC 9226", "value": 8, "unit": "µg/mL"},
      {"measurement": "MIC Range", "setting": "C. utilis ATCC 9226", "value": 4, "unit": "µg/mL"},
      {"measurement": "MFC Range", "setting": "C. utilis ATCC 22023", "value": 8, "unit": "µg/mL"},
      {"measurement": "MIC Range", "setting": "C. utilis ATCC 22023", "value": 8, "unit": "µg/mL"},
      {"measurement": "frequency of occurrence of single-step resistant mutants", "setting": "[1]", "value": "≤ 10^−6"},
      {"measurement": "MFC Range", "setting": "T. mucoides ATCC 90046", "value": 32, "unit": "µg/mL"},
      {"measurement": "MIC Range", "setting": "T. mucoides ATCC 90046", "value": 16, "unit": "µg/mL"},
      {"measurement": "MFC Range", "setting": "[2]", "value": ">64", "unit": "µg/mL"},
      {"measurement": "MIC Range", "setting": "[2]", "value": 16, "unit": "µg/mL"},
      {"measurement": "cells with hyphal extensions", "setting": "C. albicans (ATCC 90028); one half times the TMPN MIC", "value": "not observed"},
      {"measurement": "growth morphology observed (FIG. 4 panel b)", "setting": "C. albicans (ATCC 90028); one half times the TMPN MIC", "value": "only yeast growth"},
      {"measurement": "growth rate", "setting": "C. albicans (ATCC 90028); one half times the TMPN MIC", "value": "same rate as controls"},
      {"measurement": "hyphae seen", "setting": "C. albicans (ATCC 90028); one quarter times the TMPN MIC", "value": "rarely seen"},
      {"measurement": "length of hyphae", "setting": "C. albicans (ATCC 90028); one quarter times the TMPN MIC", "value": "< 20", "unit": "μm"},
      {"measurement": "yeast/hyphae switching", "setting": "C. albicans (ATCC 90028); sub-MIC exposure", "value": "did not exhibit yeast/hyphae switching"},
      {"measurement": "MFC Range", "setting": "C. glabrata ATCC 90030", "value": 16, "unit": "µg/mL"},
      {"measurement": "MIC Range", "setting": "C. glabrata ATCC 90030", "value": 4, "unit": "µg/mL"},
      {"measurement": "MFC Range", "setting": "C. glabrata ATCC 2001", "value": 16, "unit": "µg/mL"},
      {"measurement": "MIC Range", "setting": "C. glabrata ATCC 2001", "value": 8, "unit": "µg/mL"},
      {"measurement": "MIC Range", "setting": "C. glabrata (8)", "value": "8 to 32", "unit": "µg/mL"},
      {"measurement": "MFC Range", "setting": "[3]", "value": 16, "unit": "µg/mL"},
      {"measurement": "MIC Range", "setting": "[3]", "value": 16, "unit": "µg/mL"},
      {"measurement": "MFC Range", "setting": "[4]", "value": 64, "unit": "µg/mL"},
      {"measurement": "MIC Range", "setting": "[4]", "value": 16, "unit": "µg/mL"},
      {"measurement": "MFC Range", "setting": "T. ovoides ATCC 90040", "value": 32, "unit": "µg/mL"},
      {"measurement": "MIC Range", "setting": "T. ovoides ATCC 90040", "value": 16, "unit": "µg/mL"},
      {"measurement": "MIC Range", "setting": "C. rugosa (7)", "value": "1 to 64", "unit": "µg/mL"},
      {"measurement": "MIC Range", "setting": "[5]", "value": 2, "unit": "µg/mL"}
    ]}
  ]
}
